16 compounds from PubChem BioAssay (NCI) can be followed below.

Molecules are shown by their SMILES.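 Dose response: 5 concentrations. Exposure: 48 h. Format: 96-well plates. Endpoint: linear interpolation; highest concentration if not reached. Here, GI50 denotes the concentration required for 50% inhibition of growth. TGI is the concentration that stops growth completely.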 Where only a bound is given, the exact number is not on record here.

Among the test systems are HCT-15 colon; HT29 colon; SW-620 colon; COLO 205 colon; TK-10 renal; U251 CNS; OVCAR-5 ovarian; SF-268 CNS; SR leukemia.
Holding throughout (test): NCI-60 cell line screen, 48 h

As to `O=C(Nc1cc(Cl)ccc1Cl)c1cc2ccccc2oc1=O`, the TGI in the assay on HCT-15 colon, with HT29 colon, in the assay on SW-620 colon, with COLO 205 colon, in the assay with TK-10 renal and in the assay with U251 CNS was greater than 100 µM each time.
For the compound `CCc1cccc(CC)c1NC1=CC(=O)C(=O)c2ccccc21`, the TGI is 57.7 µM in the assay on HCT-15 colon; 3.95 µM in the assay on HT29 colon; 31.7 µM in the assay on SW-620 colon; 31 µM with OVCAR-5 ovarian; greater than 100 µM in the assay with COLO 205 colon; 72.5 µM in the assay on SF-268 CNS. In addition, the values for the TGI in the assay with SR leukemia, in the assay with TK-10 renal and in the assay with U251 CNS were greater than 100 µM, 56.3 µM and 36.6 µM, respectively.
As to `CCCCCCCCCCCCCCCCCCCCCCC(=O)N[C@H]1CCc2cc(OC)c(OC)c(OC)c2-c2ccc(SC)c(=O)cc21`, the TGI in the assay with HCT-15 colon is 71 µM; with HT29 colon, 99 µM; in the assay on SW-620 colon it was greater than 100 µM; in the assay on OVCAR-5 ovarian, greater than 100 µM; in the assay on COLO 205 colon it was 31.9 µM; in the assay on SF-268 CNS, greater than 100 µM. Moreover, the TGI with SR leukemia was 81.9 µM; in the assay on TK-10 renal, greater than 100 µM; in the assay on U251 CNS it was 53.2 µM.
Take `C=CC(C)(C)[C@@]12CC3C(=O)N[C@@H](Cc4ccccc4)C(=O)N3[C@@H]1N(C(C)=O)c1ccccc12` (stereo not given in full): the TGI in the assay on HCT-15 colon, in the assay with HT29 colon, with SW-620 colon, with OVCAR-5 ovarian, in the assay with COLO 205 colon and with SR leukemia was greater than 100 µM throughout. Besides, the TGI in the assay on TK-10 renal and with U251 CNS was greater than 100 µM throughout.
For the compound `CC(=O)NNc1nc(C)c(C(=O)NNC(=O)C(=O)Nc2ccc(C)cc2[N+](=O)[O-])s1`, the TGI in the assay on HCT-15 colon, in the assay on HT29 colon, in the assay on SW-620 colon, in the assay with OVCAR-5 ovarian, in the assay with COLO 205 colon and in the assay on SF-268 CNS was greater than 100 µM throughout. For the same compound, the TGI in the assay with SR leukemia, in the assay on TK-10 renal and in the assay with U251 CNS was greater than 100 µM each time.
As to `CC(=O)Nc1ccc(/C=C/C(=O)c2sc(-n3nc(-c4ccccc4)cc3-c3ccccc3)nc2C)cc1`, the TGI with HT29 colon, in the assay on SW-620 colon, in the assay on COLO 205 colon, in the assay with SF-268 CNS, in the assay on TK-10 renal and in the assay with U251 CNS was greater than 100 µM in each case. In addition, the GI50 in the assay with SW-620 colon, with COLO 205 colon, with SF-268 CNS, in the assay on TK-10 renal and with U251 CNS was greater than 100 µM throughout.
Regarding `N#Cc1cccc(C2SCc3nc4ccccc4n32)c1` (stereo not given), the TGI with HT29 colon, in the assay on SW-620 colon, with OVCAR-5 ovarian, with COLO 205 colon, with SF-268 CNS and with SR leukemia was greater than 100 µM each time. Besides, the TGI in the assay with TK-10 renal and with U251 CNS was greater than 100 µM each time.
Consider `O=C(CC1(O)C(=O)Nc2ccc(Br)cc21)c1cccc([N+](=O)[O-])c1` (stereo not given), for which the TGI in the assay with HCT-15 colon, in the assay on HT29 colon, in the assay on SW-620 colon, in the assay on OVCAR-5 ovarian, in the assay on COLO 205 colon and with SF-268 CNS was greater than 100 µM each time. Also, the TGI in the assay with TK-10 renal and in the assay on U251 CNS was greater than 100 µM in each case.
As to `COC(=O)N1C=Cc2c(c(C)c3c([nH]c4ccccc43)c2C)C1C` (stereo not given), the TGI in the assay with HCT-15 colon was 26.4 µM; in the assay on HT29 colon, 26.5 µM; in the assay on SW-620 colon, 38.9 µM; in the assay on OVCAR-5 ovarian, 34.5 µM; in the assay on COLO 205 colon, 34.4 µM; in the assay on SF-268 CNS it was 44.6 µM. The TGI is 35.9 µM in the assay on TK-10 renal and 30.4 µM with U251 CNS.
Take `Cc1nc2ccccc2c(=O)n1/N=C(\N=Nc1ccc(Cl)cc1)c1ccc(N(C)C)cc1`: the TGI in the assay with HCT-15 colon, in the assay on HT29 colon, in the assay with SW-620 colon, in the assay on COLO 205 colon, in the assay on SF-268 CNS and in the assay with TK-10 renal was greater than 100 µM throughout.
On to `O=c1ccn([C@@H]2C[C@H](CO)CS(=O)C2)c(=O)[nH]1` (stereo not given in full), for which the TGI with HCT-15 colon, with HT29 colon, in the assay with SW-620 colon, with COLO 205 colon, with SF-268 CNS and in the assay with TK-10 renal was greater than 100 µM in each case. In the assay on U251 CNS, this compound had a TGI greater than 100 µM.
With `BrC(/C=N/Nc1nnc(-c2ccccc2)c(-c2ccccc2)n1)C(Br)c1ccccc1` (stereo not given), the TGI in the assay on HCT-15 colon, with HT29 colon, in the assay on SW-620 colon, in the assay with OVCAR-5 ovarian, in the assay on COLO 205 colon and in the assay on SF-268 CNS was greater than 100 µM each time. Besides, the TGI in the assay with TK-10 renal and in the assay on U251 CNS was greater than 100 µM in each case.
As for `O=P(c1ccccc1)(c1ccccc1)C1CC=C2CCCCCC2C1` (stereo not given), the TGI was greater than 100 µM in the assay with HCT-15 colon; greater than 100 µM in the assay on HT29 colon; greater than 10 µM with SW-620 colon; 62.2 µM in the assay with OVCAR-5 ovarian; 56.4 µM with COLO 205 colon; 66 µM in the assay on SF-268 CNS. In addition, the TGI in the assay on TK-10 renal and with U251 CNS was greater than 100 µM in each case.
As to `COc1ccc(Cc2c3cc(OC)c(OC)cc3cc[n+]2C)cc1`, the TGI in the assay with HCT-15 colon is greater than 52.8 µM; with HT29 colon, greater than 27.1 µM; with SW-620 colon, greater than 100 µM; in the assay on OVCAR-5 ovarian it was greater than 100 µM; with COLO 205 colon, greater than 16.7 µM; with SF-268 CNS it was greater than 27.5 µM. Also, the TGI in the assay with SR leukemia was greater than 100 µM; in the assay with TK-10 renal, greater than 65.1 µM; in the assay with U251 CNS, greater than 73.1 µM.
In the case of `C#CC[C@]12CC(=O)CC[C@H]1CC1(C2)OCCO1`, the TGI with HCT-15 colon, in the assay with SW-620 colon, in the assay with COLO 205 colon, with SF-268 CNS, with SR leukemia and in the assay on TK-10 renal was greater than 100 µM throughout. In the assay on U251 CNS, this compound showed a TGI greater than 100 µM.
For `Cc1cc2c(=O)cc(-c3ccncc3)oc2c(C(N)=O)c1C`, the TGI in the assay on HCT-15 colon, in the assay on HT29 colon, with SW-620 colon, in the assay with OVCAR-5 ovarian, in the assay with COLO 205 colon and with SF-268 CNS was greater than 100 µM each time. The TGI in the assay with SR leukemia, with TK-10 renal and with U251 CNS was greater than 100 µM in each case.
